Source: article PMC10828251, “A novel PSMA-targeting tracer with highly negatively charged linker demonstrates decreased salivary gland uptake in mice compared to [^68Ga]Ga-PSMA-11” (EJNMMI Radiopharmacy and Chemistry, 2024)
Several values for one entry are separate records, joined by “and”; a condition that tells them apart may be missing. Identical values can stand only once. Like-named read-outs stand apart in the source and are kept apart here. Blank lines part the entries; values can stand above or below the compound they belong to. Numbered stars: 1 amine (or outer) side, 2 acyl side, 3 side chain; on linkers, the order of the positions; unused ones are H or OH. Peptide text beside a SMILES is read from it. * marks the point of attachment. X1 = O=C(O)CN1CCN(CC(=O)O)CC(Cc2ccc(NC(=S)*)cc2)N(CC(=O)O)CC1; DOTA = O=C(O)CN1CCN(CC(=O)O)CCN(CC(=O)*)CCN(CC(=O)O)CC1; γGlu = O=C(O)[CH](CCC(=O)[*:2])N[*:1]; CO = O=C([*:1])[*:2]; Ahx = NCCCCCC(=O)O

What was measured:
[1] = assessment of stability (radiolysis) by radio-HPLC; assay type: physicochemical; conditions: for degradation on radio-HPLC after Ga-68 labeling without radioprotectant: aqueous sodium acetate buffer
Description: The compound in Figure 7 was not further developed as a potential theranostic agent since the need for a radioprotectant with Ga-68 labeling indicated potentially significant instability with high dose beta and alpha emitters.
Figure 8. Radio-HPLC trace of the compound in Figure 7 seventy minutes after labeling with Ga-68. The labeling reaction consisted of 2 μL of the compound (0.5mg/mL), 40 μL of NaOAc Buffer B, 5 μL ascorbic acid (100mg/mL) and 0.2mL of Eckert & Ziegler GalliaPharm Generator eluate. Buffer B composition is stated above. The HPLC gradient used was 5%-95%B in 15 minutes where solvent B is acetonitrile and solvent A is water with 0.1% formic acid. Column: Phenomenex Synergi Hydro-RP 80A 150x4.6mm 4 micrometer column (Phenomenex, Torrance, CA).
Figure 10. Radio-HPLC trace of [^68Ga]Ga-JB-1498 immediately after radiolabeling. The small signal at the solvent front is a very small amount of [^68Ga]GaCl3. The labeling reaction contained 2 μL of JB1498 (0.5mg/mL), 40 μL of NaOAc Buffer B and 0.2mL of Eckert & Ziegler GalliaPharm Generator eluate. Buffer B composition is stated above. The HPLC gradient used was 5%-95%B in 15 minutes where solvent B is acetonitrile and solvent A is water with 0.1% formic acid. Column: Waters (Milford, MA) Symmetry C18, 5μm, 4.6 x 150 mm column.

GCP-II = target: T1, GCP-II (Homo sapiens, UniProt Q04609); test: fluorescent enzymatic inhibition assay (competitive binding assay; NAAG hydrolysis by PC3-PIP membranes, Amplex Red glutamic acid readout); assay type: biochemical; conditions: upper limit set from the EC50; read-out: upper limit of Ki to PSMA
T1 construct: expressed in transfected cells; host or cells: PC3-PIP cells: washed membrane preparation after freeze-thaw cycles, 10 µg per well
T1 sequence (Q04609 whole entry): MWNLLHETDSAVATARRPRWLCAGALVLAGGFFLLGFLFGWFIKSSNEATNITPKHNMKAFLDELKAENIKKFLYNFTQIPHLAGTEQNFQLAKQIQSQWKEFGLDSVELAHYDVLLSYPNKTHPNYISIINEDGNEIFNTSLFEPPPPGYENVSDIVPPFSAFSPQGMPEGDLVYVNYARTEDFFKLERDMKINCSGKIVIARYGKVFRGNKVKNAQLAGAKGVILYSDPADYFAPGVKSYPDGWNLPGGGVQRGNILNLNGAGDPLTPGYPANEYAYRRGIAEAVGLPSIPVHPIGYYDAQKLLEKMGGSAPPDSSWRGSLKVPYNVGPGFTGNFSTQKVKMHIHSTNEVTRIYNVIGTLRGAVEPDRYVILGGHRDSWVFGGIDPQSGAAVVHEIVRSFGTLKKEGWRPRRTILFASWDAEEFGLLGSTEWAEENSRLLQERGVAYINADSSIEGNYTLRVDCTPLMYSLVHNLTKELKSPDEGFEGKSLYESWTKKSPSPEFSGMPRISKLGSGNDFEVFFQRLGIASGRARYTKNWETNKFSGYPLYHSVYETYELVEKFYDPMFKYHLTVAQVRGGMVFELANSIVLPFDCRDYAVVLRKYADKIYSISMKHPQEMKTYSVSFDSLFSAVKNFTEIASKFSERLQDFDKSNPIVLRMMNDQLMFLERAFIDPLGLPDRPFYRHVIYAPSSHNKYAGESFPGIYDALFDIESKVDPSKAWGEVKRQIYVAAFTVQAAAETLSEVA
Description: Binding affinity of JB-1498 toward GCP-II was determined using fluorescent enzymatic inhibition assay (Kozikowski et al. [2004]) as detailed in the Additional file 1.
PC3-PIP PSMA expressing cells were grown to confluency, harvested in 50mM Tris-HCl, pH 7.5 and subjected to 4 freezing and thawing cycles. Cell membranes were washed three times by centrifugation at 12,000g or higher. The cell membrane mixture was diluted to a concentration of 50 mg/mL in 50mM Tris-HCl, pH 7.5 (based on wet weight of the solid after centrifugation) and stored in a -80°C freezer until ready to use.
The assays were conducted on 96-well plates. […] Then the glutamic acid concentration was measured with Amplex Red glutamic acid assay kit (Invitrogen-Molecular Probes, now part of Thermo Fisher Scientific, Waltham, MA)) using a fluorescent plate reader (excitation at 530nm, measuring emission at 590nm). The fluorescence signals at 590nm were then normalized and normalized fluorescence was plotted against the Log concentration of JB1498 ligand (Figure 1). EC50 was determined using the equation: Fluorescence = baseline + (max fluorescence – baseline) […]. Microsoft Excel and KaleidaGraph (Synergy Software, Reading, PA) were used for data processing and graphing.

[2] = high molar activity biodistribution study in non-tumor-bearing NSG mice; assay type: in vivo; conditions: 1 hour after injection, high specific activity 59 GBq/μmol
Description: For the high molar activity biodistribution and imaging study, a fresh 1.85 GBq (50mCi) GalliaPharm Gallium-68 generator from Eckert & Ziegler (Berlin, Germany) was used. Radiolabeling of JB-1498 with [^68Ga]GaCl3 was performed in aqueous sodium acetate buffer at pH 4–5 and 98 °C for 10 min. The reaction product was diluted with water, loaded onto an Oasis HLB cartridge, washed with water, and eluted with 2:1 PBS:EtOH as detailed in the Additional file 1. The fractions with highest radioactivity were diluted with saline for injection in mice. Please refer to Additional file 1: Figs. 4 and Fig. 5 for HPLC traces of the products prior to and after solid phase extraction. The molar activity of the purified product was estimated to be 59 GBq/μmol (1600 Ci/mmol) at the time of first injection. [^68Ga]Ga-PSMA-11 was produced concurrently by incubating [^68Ga]GaCl3 and PSMA-11 precursor in sodium acetate buffer at pH 4–5 at room temperature for 10 min. Please refer to Additional file 1: Fig. 6 for HPLC trace of the product. The molar activity of the product was estimated to be 48 GBq/μmol (1300 Ci/mmol) at the time of first injection.
For the high molar activity biodistribution study aimed at maximizing salivary gland uptake, 3 male NSG mice without tumor were injected with 100μL of the [^68Ga]Ga-JB-1498 solution under anesthesia via retro-orbital injection per the above-described protocol. The dose injected was 1.31 ± 0.26 MBq.

[3] = micro-PET imaging in non-tumor-bearing NSG mice; assay type: in vivo; conditions: for course of activity in salivary glands and kidneys, dynamic micro-PET: during the first hour
Description: For the micro-PET imaging study, high molar activity [^68Ga]Ga-JB-1498 and [^68Ga]Ga-PSMA-11 were administered to non-tumor bearing NSG mice via tail vein injection. The dose injected was 5.3MBq of [^68Ga]Ga-PSMA-11 and 4.4 MBq of [^68Ga]Ga-JB-1498. Imaging was performed on a nanoScan PET/CT instrument (Mediso USA, Arlington, Virginia). List mode PET acquisition was performed for 45 min starting 25 min post-injection. CT was performed for PET attenuation correction and anatomic localization.

[4] = tested on: PC3-PIP PSMA-expressing cell line; test: initial biodistribution study, low molar activity, PC3-PIP tumor-bearing NSG mice; assay type: in vivo; conditions: 1 hour after injection, specific activity below 7.4 GBq/μmol; for Biodistribution, Tumor: PC3-PIP PSMA+ tumor, NSG mice
Description: Radiolabeling of JB-1498 for the initial biodistribution study was performed using [^68Ga]GaCl3 from a spent ^68Ge/^68Ga generator from Isotopen Technologies Garching (Garching, Germany, currently ITM). JB-1498 with [^68Ga]GaCl3 was heated in aqueous sodium acetate buffer at pH 4–5 and 97 C for 7 min. The reaction product was HPLC-purified for the biodistribution study as detailed in the Additional file 1. The molar activity of the purified product was less than 7.4 GBq/μmol (200 Ci/mmol) at the conclusion of synthesis.
For the initial biodistribution study in tumor bearing mice, 3 male 10 week-old NSG mice (NOD.Cg-Prkdc^scidIl2rg^tm1Wjl/SzJ) were inoculated subcutaneously with 4 million cells of PC3-PIP PSMA-expressing cell line. Mice were housed in a specific pathogen free, temperature- and humidity-controlled environment, in standard micro-isolator top cages with ad libitum access to chow. Biodistribution studies were conducted when the long axis of the tumor exceeded 1 cm. Each mouse was injected with 100 μL of the [^68Ga]Ga-JB-1498 solution under isoflurane anesthesia via retro-orbital injection in the right eye and euthanized 1 h after injection. Major organs (including the left salivary glands) were dissected for radioactivity quantification. The dose injected was 0.74 ± 0.27 MBq.

LNCaP cell line = tested on: LNCaP cell line; design: method as in Rousseau et al. [2018]; conditions: NSG mice, one hour after injection, ref Rousseau et al. [2018], cited from earlier work
[5] = tested on: PSMA-expressing metastatic prostate cancer; design: method as in Sartor et al. [2021]; conditions: 7.4 GBq (200 mCi) regimen; ref Sartor et al. [2021]; cited from earlier work
[6] = N=3, listed as [^68Ga]Ga-JB1498
[7] = LNCaP tumor model, listed as [^68Ga]Ga-PSMA 11

Compound: NC(=O)C(CCCCNC(=O)CN1CCN(CC(=O)O)CCN(CC(=O)O)CCN(CC(=O)O)CC1)NC(=O)C(Cc1ccc(O)cc1)NC(=O)C(CCC(=O)O)NC(=O)C(CCC(=O)O)NC(=O)C(CCC(=O)O)NC(=O)CCCCCNC(=O)CCC(NC(=O)NC(CCC(=O)O)C(=O)O)C(=O)O (centres unmarked) [JB-1498] ({Glu-CO-γGlu-Ahx}-EEEYK(DOTA)-NH2; configuration not given here)
Ki (GCP-II): < 0.3 nM

Compound: [^177Lu]Lu-PSMA-617
complete response [5]: 9%
partial response [5]: 42%

More lines, main results first:

degradation on radio-HPLC after Ga-68 labeling without radioprotectant ([1]; no radioprotectant): multiple peaks in radio-HPLC
radiolysis on radio-HPLC two hours after radiolabeling ([1]; in the presence of ascorbic acid): some radiolysis
Compound: NC(=O)C(CCCCNC(=S)Nc1ccc(CC2CN(CC(=O)O)CCN(CC(=O)O)CCN2CC(=O)O)cc1)NC(=O)C(Cc1ccc(O)cc1)NC(=O)C(CCC(=O)O)NC(=O)C(CCC(=O)O)NC(=O)C(CCC(=O)O)NC(=O)CCCCCNC(=O)CCC(NC(=O)NC(CCC(=O)O)C(=O)O)C(=O)O (centres unmarked) (68Ga complex, metal not drawn) [compound in Figure 7] ({Glu-CO-γGlu-Ahx}-EEEYK(X1)-NH2; configuration not given here)
stability on radio-HPLC after Ga-68 labeling with radioprotectant ([1]; aqueous sodium acetate buffer with ascorbic acid): reasonable stability with minimal degradation

Biodistribution, Blood ([2]; N=3): 0.39%ID/gram of tissue
Biodistribution, Combined Salivary gland ([2]; N=3): 0.39%ID/gram of tissue
Biodistribution, Kidney ([2]; N=3): 10.12%ID/gram of tissue
Biodistribution, Liver ([2]; N=3): 0.68%ID/gram of tissue
Biodistribution, Lung ([2]; N=3): 0.66%ID/gram of tissue
Biodistribution, Spleen ([2]; N=3): 2.34%ID/gram of tissue
Biodistribution, parotid (Left) ([2]; N=3): 0.36%ID/gram of tissue
Biodistribution, submandibular (Left) ([2]; N=3): 0.42%ID/gram of tissue
Biodistribution, Combined Salivary gland [2, 6]: 0.39 ± 0.24 %ID/gram of tissue
Biodistribution, Kidney [2, 6]: 10.12 ± 1.73 %ID/gram of tissue
degradation on radio-HPLC after Ga-68 labeling without radioprotectant ([1]; no radioprotectant): no significant degradation
radiolysis on radio-HPLC 2.5 hours after synthesis ([1]; no radioprotectant, compared to trace immediately after radiolabeling): no significant radiolysis
salivary gland (SG) and background activity on micro-PET compared to [68Ga]Ga-PSMA-11 ([3]; 1 h post injection, same SUV grayscale): very little
tracer excretion on micro-PET ([3]; 1 h post injection, most of injected tracer in the urinary bladder): rapid tracer excretion via the kidneys
salivary gland and kidney uptake on micro-PET images compared to [68Ga]Ga-PSMA-11 ([3]; 1 h post-injection, tail vein, non-tumor bearing NSG mice): much lower
course of activity in salivary glands and kidneys, dynamic micro-PET [3]: gradually decreasing
Biodistribution, Tumor ([4]; listed as [^68Ga]Ga-JB1498): 12.09 ± 1.28 %ID/gram of tissue
Biodistribution, Blood ([4]; PSMA+ tumor-bearing NSG mice): 0.22%ID/gram of tissue
Biodistribution, Liver ([4]; PSMA+ tumor-bearing NSG mice, listed as [^68Ga]Ga-JB1498): 0.20 ± 0.09 %ID/gram of tissue
Biodistribution, Kidney ([4]; PSMA+ tumor-bearing NSG mice, single sample of left kidney): 12.98%ID/gram of tissue
Compound: NC(=O)C(CCCCNC(=O)CN1CCN(CC(=O)O)CCN(CC(=O)O)CCN(CC(=O)O)CC1)NC(=O)C(Cc1ccc(O)cc1)NC(=O)C(CCC(=O)O)NC(=O)C(CCC(=O)O)NC(=O)C(CCC(=O)O)NC(=O)CCCCCNC(=O)CCC(NC(=O)NC(CCC(=O)O)C(=O)O)C(=O)O.[68Ga] (centres unmarked) [[^68Ga]Ga-JB-1498] ({Glu-CO-γGlu-Ahx}-EEEYK(DOTA)-NH2; configuration not given here)
Biodistribution, Tumor [4]: 12.09%ID/gram of tissue and 10.49%ID/gram of tissue
Biodistribution, Bone ([4]; PSMA+ tumor-bearing NSG mice): 0.11%ID/gram of tissue and 0.10%ID/gram of tissue
Biodistribution, Heart ([4]; PSMA+ tumor-bearing NSG mice): 0.12%ID/gram of tissue and 0.11%ID/gram of tissue
Biodistribution, Liver ([4]; PSMA+ tumor-bearing NSG mice): 0.20%ID/gram of tissue and 0.18%ID/gram of tissue
Biodistribution, Lung ([4]; PSMA+ tumor-bearing NSG mice): 0.24%ID/gram of tissue and 0.21%ID/gram of tissue
Biodistribution, Muscle ([4]; PSMA+ tumor-bearing NSG mice): 0.22%ID/gram of tissue and 0.19%ID/gram of tissue
Biodistribution, Salivary gland ([4]; PSMA+ tumor-bearing NSG mice): 0.13 ± 0.01 %ID/gram of tissue and 0.13%ID/gram of tissue and 0.11%ID/gram of tissue
Biodistribution, Spleen ([4]; PSMA+ tumor-bearing NSG mice, 2 splenic samples): 0.31%ID/gram of tissue and 0.27%ID/gram of tissue

course of activity in salivary glands and kidneys, dynamic micro-PET [3]: gradually increasing
Compound: O=C([O-])CN(CCN(CC(=O)[O-])Cc1cc(CCC(=O)NCCCCCC(=O)NCCCC[C@H](NC(=O)N[C@@H](CCC(=O)O)C(=O)O)C(=O)O)ccc1[O-])Cc1cc(CCC(=O)O)ccc1[O-].[68Ga+3].[OH3+] [[^68Ga]Ga-PSMA-11]
Biodistribution, Blood (LNCaP cell line; LNCaP tumor model): 0.31%ID/gram of tissue
Biodistribution, Kidney (LNCaP cell line; LNCaP tumor model): 182.0 ± 33.5 %ID/gram of tissue
Biodistribution, Liver (LNCaP cell line; LNCaP tumor model): 0.44%ID/gram of tissue
Biodistribution, Muscle (LNCaP cell line; LNCaP tumor model): 0.54%ID/gram of tissue
Biodistribution, Salivary gland (LNCaP cell line; LNCaP tumor model): 10.00 ± 2.52 %ID/gram of tissue
Biodistribution, Spleen (LNCaP cell line; LNCaP tumor model): 22.20%ID/gram of tissue
Biodistribution, Kidney (LNCaP cell line; [7]): 182.00%ID/gram of tissue
Biodistribution, Salivary gland (LNCaP cell line; [7]): 10.00%ID/gram of tissue
Biodistribution, Tumor (LNCaP cell line; LNCaP tumor): 8.67%ID/gram of tissue
